Test results reported in publication PMC11045757, “Group 3 medulloblastoma transcriptional networks collapse under domain specific EP300/CBP inhibition” (Nature Communications, 2024).

Tested on: 460 barcoded cancer cell lines
Assay: PRISM pooled barcoded cancer cell line growth screen, 10-point dose-response, 5 days, AUC
Assay type: cell-based
Set-up: scale not given here
Description: Several small molecule inhibitors of distinct protein domains of EP300/CBP are available, though the majority target the histone acetyltransferase domain (HAT) or bromodomain (BRD)[5],[10],[21],[22]. […] We used these tools to investigate the relative contribution of the EP300/CBP BRD or HAT domain to tumor cell growth (Fig. 1a). To do so, we performed 10-point, dose-response growth assays using mixed pools of 460 barcoded cancer cell lines, over five days of treatment in vitro[33],[34]. Growth was measured using an area-under-the-curve (AUC) approach (Supplementary Table 1, Supplementary Fig. 1a). […] Given potential differences in compound penetration and solubility, and to compare the relative cell line and tumor-specific effects of these two compounds in assays performed non-simultaneously, we performed a median normalization of each dataset (Supplementary Table 2).

## CO[C@H]1CC[C@H](n2c([C@@H]3CCCC(=O)N3c3ccc(F)c(F)c3)nc3cc(-c4c(C)noc4C)ccc32)CC1 [CCS1477]
22RV1, Prostate Cancer
  AUC: 0.7824
42MGBA, Glioma
  AUC: 0.959
143B, Osteosarcoma
  AUC: 0.7756
639V, Bladder Cancer
  AUC: 1
647V, Bladder Cancer
  AUC: 0.9387
697, B-cell Leukemia
  AUC: 0.8421
769P, Kidney Cancer
  AUC: 0.866
5637, Bladder Cancer
  AUC: 0.9709
8305C, Thyroid Cancer
  AUC: 0.9842
A101D, Melanoma
  AUC: 0.9949
A204, Rhabdoid
  AUC: 0.6935
A253, Head and Neck Cancer
  AUC: 0.8895
A375, Melanoma
  AUC: 0.896
A427, Lung Cancer
  AUC: 0.8534
A673, Ewing Sarcoma
  AUC: 0.974
A1207, Glioblastoma
  AUC: 1
ACHN, Kidney Cancer
  AUC: 0.9303
AM38, Glioblastoma
  AUC: 0.9422
AN3CA, Endometrial/Uterine Cancer
  AUC: 0.9421
AU565, Breast Cancer
  AUC: 0.9734
BDCM, AML
  AUC: 0.9113
BEN, Lung Cancer
  AUC: 0.7123
BFTC905, Bladder Cancer
  AUC: 0.9629
BHT101, Thyroid Cancer
  AUC: 0.7216
BICR16, Head and Neck Cancer
  AUC: 0.7276
BICR18, Head and Neck Cancer
  AUC: 0.7534
BICR22, Head and Neck Cancer
  AUC: 0.8618
BICR31, Head and Neck Cancer
  AUC: 0.8654
BICR56, Head and Neck Cancer
  AUC: 0.8942
BT16, Rhabdoid
  AUC: 0.8481
BT474, Breast Cancer
  AUC: 0.9512
C32, Melanoma
  AUC: 0.5879
C8166, Lymphoma
  AUC: 0.8246
CADOES1, Ewing Sarcoma
  AUC: 0.8986
CAKI1, Kidney Cancer
  AUC: 0.9906
CAL27, Head and Neck Cancer
  AUC: 0.9982
CAL54, Kidney Cancer
  AUC: 0.8391
CAL62, Thyroid Cancer
  AUC: 0.9564
CAL78, Chondrosarcoma
  AUC: 0.8691
CAL120, Breast Cancer
  AUC: 0.9482
CAOV3, Ovarian Cancer
  AUC: 0.8478
CBAGPN, Ewing Sarcoma
  AUC: 0.8224
CCK81, Colon/Colorectal Cancer
  AUC: 0.8227
CHL1, Melanoma
  AUC: 0.6111
CHLA06ATRT, Rhabdoid
  AUC: 1
CHLA10, Ewing Sarcoma
  AUC: 0.9814
CHLA15, Neuroblastoma
  AUC: 0.7397
CHLA57, Ewing Sarcoma
  AUC: 0.9985
CHP212, Neuroblastoma
  AUC: 0.8537
CI1, B-cell Lymphoma
  AUC: 0.9278
CJM, Melanoma
  AUC: 0.8842
CL11, Colon/Colorectal Cancer
  AUC: 0.761
CL34, Colon/Colorectal Cancer
  AUC: 0.9427
CMLT1, CML
  AUC: 0.8343
COGAR359, Rhabdoid
  AUC: 1
COGE352, Ewing Sarcoma
  AUC: 0.998
COLO320, Colon/Colorectal Cancer
  AUC: 0.8831
COLO678, Colon/Colorectal Cancer
  AUC: 0.8848
COLO783, Melanoma
  AUC: 0.9736
COLO792, Melanoma
  AUC: 0.8076
CORL23, Lung Cancer
  AUC: 0.9125
CORL105, Lung Cancer
  AUC: 0.8782
COV318, Ovarian Cancer
  AUC: 0.899
COV434, Ovarian Cancer
  AUC: 0.9687
CW2, Colon/Colorectal Cancer
  AUC: 0.9939
CW9019, Rhabdomyosarcoma
  AUC: 0.9021
DAOY, Medulloblastoma
  AUC: 0.8871
DEL, Lymphoma
  AUC: 1
DETROIT562, Head and Neck Cancer
  AUC: 0.9177
DKMG, Glioblastoma
  AUC: 1
DL, Rhabdoid
  AUC: 0.7415
DMS53, Lung Cancer
  AUC: 0.712
DMS273, Lung Cancer
  AUC: 1
DND41, T-acute leukemia
  AUC: 0.9395
DU145, Prostate Cancer
  AUC: 0.9501
DU4475, Breast Cancer
  AUC: 0.7484
DV90, Lung Cancer
  AUC: 0.9154
EB1, Lymphoma
  AUC: 0.7489
EBC1, Lung Cancer
  AUC: 0.7317
ECC10, Gastric Cancer
  AUC: 0.9776
ECGI10, Esophageal Cancer
  AUC: 0.9953
EFE184, Endometrial/Uterine Cancer
  AUC: 0.7698
EFM19, Breast Cancer
  AUC: 0.7512
EFO21, Ovarian Cancer
  AUC: 0.9901
EM2, CML
  AUC: 0.9432
EN, Endometrial/Uterine Cancer
  AUC: 1
ES2, Ovarian Cancer
  AUC: 0.9355
ESS1, Endometrial/Uterine Cancer
  AUC: 0.9966
EW8, Ewing Sarcoma
  AUC: 1
EWS502, Ewing Sarcoma
  AUC: 0.7102
FADU, Head and Neck Cancer
  AUC: 0.8918
FTC133, Thyroid Cancer
  AUC: 0.9601
FTC238, Thyroid Cancer
  AUC: 0.9961
G292CLONEA141B1, Osteosarcoma
  AUC: 1
G361, Melanoma
  AUC: 0.6349
G401, Rhabdoid
  AUC: 0.8875
G402, Rhabdoid
  AUC: 0.8394
GB1, Glioblastoma
  AUC: 0.7767
GCT, Pleomorphic Sarcoma
  AUC: 0.9612
GI1, Glioblastoma
  AUC: 0.7855
GOS3, Glioblastoma
  AUC: 0.984
GP2D, Colon/Colorectal Cancer
  AUC: 0.7748
GRANTA519, Lymphoma
  AUC: 0.9571
GSS, Gastric Cancer
  AUC: 0.646
HARA, Lung Cancer
  AUC: 0.9612
HCC33, Lung Cancer
  AUC: 0.9669
HCC38, Breast Cancer
  AUC: 0.8868
HCC44, Lung Cancer
  AUC: 0.9456
HCC56, Colon/Colorectal Cancer
  AUC: 0.9605
HCC78, Lung Cancer
  AUC: 0.8972
HCC95, Lung Cancer
  AUC: 0.9968
HCC515, Lung Cancer
  AUC: 0.7803
HCC1419, Breast Cancer
  AUC: 0.8162
